Like-named read-outs stand apart in the source and are kept apart here. Positions of bridges follow the written chain, without caps; N, C: chain ends. Non-standard residues stand in square brackets, D forms with d. Residues, ends and D or L forms follow the SMILES beside them. *: point of attachment. X1 = CC[C@H](C)CCCCC(=O)*; Dab = NCC[C@H](N)C(=O)O
Key:
[1] = Population pharmacokinetic (PPK) model, non-parametric adaptive grid (Pmetrics), critically ill patients; assay type: in vivo, human; settings: for clearance: human
From the text: (§1) We gather data from critically ill patients (≥18 years old) who were given intravenous drip polymyxin B treatment with blood concentration monitoring at the hospital from November 2021 to September 2022. The attending physician decided to administer polymyxin B. At the same time, patients who received continuous renal replacement therapy (CRRT) (n = 10) or extracorporeal membrane oxygenation (ECMO) (n = 2) at the time of blood collection were excluded. Patients’ information, including gender, age, WT, serum creatinine (Scr), CCR, ALB, APACHE-II, infection diagnosis, and pathogenic bacteria, were obtained from the electronic system for medical records. CCR was generated by adopting the Cockcroft—Gault equation with WT and age ([Cucci et al., 2022]). The Ethical Committees of the Second Affiliated Hospital of the South China University of Technology authorized the study (K-2022-020-01).
(§2) Patients were treated with polymyxin B, and plasma samples were collected ≥ 48 h after the treatment. Each patient contributed clinical samples, of which 37.5% (n = 24) were sampled with troughs (within 1 h before administration), 35.9% (n = 23) were sampled with peaks (within 1 h after the end of the infusion), and 26.6% (n = 17) were sampled at 6-8 h after the infusion. The dosing regimens of polymyxin B were a loading dose of 100 mg–150 mg and a maintenance dose of 50 mg–75 mg q12h, and the infusion duration was about 1–2 h. In preparation for analysis, samples were centrifuged for 10 min at 3000 r min^-1 after collection, and the upper plasma after centrifugation was stored at −20°C.
(§3) According to previous studies, total polymyxin B1, polymyxin B2, and polymyxin B1-Ile concentrations in human blood plasma were quantified using LC-MS/MS ([Meng et al., 2016]; [Hee et al., 2017]). The standard used in our experiments was the USP standard with the batch number of R104F0. The chromatographic column was the Kinetex C18 (3 μm × 2.1 mm×100 mm. Phenomenex). A: B mobile phase was 0.1% formic acid to acetonitrile. With changes in the linear velocity ratio, gradient elution was as follows: 15% −15% B, 0–2.0 min; 15%–10% B, 2.01–4.0 min; 10%–30% B, 4.01–5.0 min; 15% B, 5.01 min; and 15%–15% B, 5.02–10 min. The flow rate was constrained to 0.8 mL min^-1, and the column temperature was set to 40°C. The parent/daughter ion mass ratios used in the mass spectrometry were m/z 602.6/241.2 (polymyxin B1 and B1-Ile) and m/z 595.6/202.1 (polymyxin B2). Plasma samples (100 μL) were collected from centrifuged blood samples, mixed with 500 μL precipitant (acetonitrile with 6.67% formic acid) and vortexed well for 1 min. The lower limit of quantification (LLOQ) of the bioanalytical method used for quantifying polymyxin B1, B2, and B1-Ile concentrations was 0.19, 0.02 and 0.02 mg L^-1, respectively. The linear relationships of polymyxin B1, B2, and B1-Ile concentrations in the range of 0.19–24.13 mg L^-1, 0.02–2.7 mg L^-1 and 0.02–2.38 mg L^-1 were considered good (R^2 = 0.99677, R^2 = 0.99656, R^2 = 0.99484) and the accuracy was within 95.3%–105.3%, 92.2%–104.8%, and 95.8%–105.4%. […] Finally, 200 μL of the supernatant from the centrifugation of the combination at 14,000 r min^-1 for 10 min was employed to measure the amounts of polymyxin B.
In order to analyze the total concentrations of polymyxin B, Pmetrics version 1.9.7 (Laboratory of Applied Pharmacokinetics and Bioinformatics, Los Angeles, CA) was used by R version 4.1.3 ([Neely et al., 2012]). PK parameters were evaluated by a one-compartment model and a two-compartment model. The multiplicative error model (SD ×gamma), which requires the observation concentration values to be weighted by the reciprocal of the error, was used to calculate the error structure model. Gamma is the process noise that results from incorrectly specified sampling time, dosage, etc. […]

[2] = Steady-state plasma concentrations of polymyxin B (total of B1, B2, B1-Ile) by LC-MS/MS; assay type: in vivo; settings: human, iv, 50 mg, read-out: OUT (observed polymyxin B plasma concentration)
From the text: as §1, §2, §3

[3] = data splitting, 20% of the data
[4] = data splitting, 80% of the data
[5] = final model 6, bootstrap, median
[6] = final model 6, full data set, 22 critically ill patients, iv, mean
[7] = final model 6, full data set, median

With CC[C@H](C)CCCCC(=O)N[C@@H](CCN)C(=O)N[C@H](C(=O)N[C@@H](CCN)C(=O)N[C@H]1CCNC(=O)[C@H]([C@@H](C)O)NC(=O)[C@H](CCN)NC(=O)[C@H](CCN)NC(=O)[C@H](CC(C)C)NC(=O)[C@@H](Cc2ccccc2)NC(=O)[C@H](CCN)NC1=O)[C@@H](C)O [polymyxin B] (X1-[Dab]T[Dab][Dab][Dab][dF]L[Dab][Dab]T; lactam 4-C) as the compound, how does the “Q, mean value” [1, 3] read?
The value was 2.56 L/h.

And the “Vc, mean value” [1, 3]?
The value was 13.58 L.

What about the “Vp, mean value” [1, 3] of the same compound?
The value was 64.60 L.

What about the “Q, mean value” [1, 4] of the same compound?
The value was 3.44 L/h.

What about the “Vc, mean value” [1, 4] of the same compound?
Its value is 17.82 L.

What about the “Vp, mean value” [1, 4] of the same compound?
Its value is 40.26 L.

And the “CL, bootstrap median” value [1, 5]?
Its value is 1.22 L/h.

What about the “Q, bootstrap median” value [1, 5] of the same compound?
Its value is 2.31 L/h.

What about the “Vc, bootstrap median” value [1, 5] of the same compound?
Its value is 17.15 L.

And the “Vp, bootstrap median” value [1, 5]?
Its value is 66.34 L.

What about the “Q, mean” value [1, 6] of the same compound?
The value was 3.04 L/h.

What about the “Vc, mean” value [1, 6] of the same compound?
The value was 16.64 ± 12.74 L.

And the “Vp, mean” value [1, 6]?
Its value is 66.20 L.

And the “Q, median” value [1, 7]?
Its value is 2.34 L/h.

And the “Vc, median” value [1, 7]?
The value was 13.52 L.

And the “Vp, median” value [1, 7]?
The value was 76.53 L.

What about the clearance ([1]; plasma, iv, data splitting, 20% of the data, read-out: CL, mean value (converted)) of the same compound?
The clearance was 21.8 mL/min.

What about the clearance ([1]; plasma, iv, data splitting, 80% of the data, read-out: CL, mean value (converted)) of the same compound?
Its clearance is 22.5 mL/min.

What about the clearance ([1]; plasma, iv, final model 6, full data set, 22 critically ill patients, iv, median, read-out: CL, median (converted)) of the same compound?
Its clearance is 20.3 mL/min.

What about the clearance ([1]; final model 6 (two-compartment, covariates age and ALB), full data set, 22 critically ill patients, 64 samples, iv infusion, steady state, total plasma concentration, LC-MS/MS, NPAG, mean, read-out: CL, mean (converted)) of the same compound?
Its clearance is 20.7 mL/min.

What about the level at 47.67 h ([2]; patient ID 2, TIME 47.67, DOSE 50 every 12 from 0 to 36, DUR 1, WT 56, CCR 34.05, ALB 30.1, APACHE 20, single sample) of the same compound?
Its level at 47.67 h is 3020 ng/mL.

And the level at 50 h ([2]; patient ID 6, TIME 50, DOSE 50 every 12 from 0 to 48, DUR 1, WT 60, CCR 81.34, ALB 36.6, APACHE 18, single sample)?
Its level at 50 h is 4480 ng/mL.

What about the level at 300 h ([2]; patient ID 7, TIME 300, DOSE 50 from 0, ADDL 25, II 12, DUR 1, WT 52, CCR 121.16, ALB 32.1, APACHE 21, single sample) of the same compound?
Its level at 300 h is 2640 ng/mL.

What about the level at 301 h ([2]; patient ID 7, TIME 301, DOSE 50 from 0, ADDL 25, II 12, DUR 1, WT 52, CCR 121.16, ALB 32.1, APACHE 21, single sample) of the same compound?
The level at 301 h was 7720 ng/mL.

What about the level at 306.5 h ([2]; patient ID 7, TIME 306.5, DOSE 50 from 0, ADDL 25, II 12, DUR 1, WT 52, CCR 121.16, ALB 32.1, APACHE 21, single sample) of the same compound?
Its level at 306.5 h is 4180 ng/mL.

What about the level at 133.6 h ([2]; patient ID 9, TIME 133.6, DOSE 50 from 0, ADDL 11, II 12, DUR 1, WT 55, CCR 34.79, ALB 30.8, APACHE 15, single sample) of the same compound?
The level at 133.6 h was 3740 ng/mL.

What about the level at 139 h ([2]; patient ID 9, TIME 139, DOSE 50 from 0, ADDL 11, II 12, DUR 1, WT 55, CCR 34.79, ALB 30.8, APACHE 15, single sample) of the same compound?
The level at 139 h was 3180 ng/mL.

What about the level at 145 h ([2]; patient ID 9, TIME 145, DOSE 50 from 0, ADDL 11, II 12, DUR 1, WT 55, CCR 34.79, ALB 30.8, APACHE 15, single sample) of the same compound?
The level at 145 h was 2890 ng/mL.

And the level at 195 h ([2]; patient ID 15, TIME 195, DOSE 50 every 12 from 133 (DUR 1, ADDL 11), WT 50, CCR 35.85, ALB 29.5, APACHE 39, single measurement)?
The level at 195 h was 4600 ng/mL.

And the level at 207 h ([2]; patient ID 15, TIME 207, DOSE 50 every 12 from 133 (DUR 1, ADDL 11), WT 50, CCR 35.85, ALB 29.5, APACHE 39, single measurement)?
Its level at 207 h is 2250 ng/mL.

And the level at 266.25 h ([2]; patient ID 15, TIME 266.25, DOSE 50 every 12 from 133 (DUR 1, ADDL 11), WT 50, CCR 35.85, ALB 29.5, APACHE 39, single measurement)?
The level at 266.25 h was 4870 ng/mL.

What about the level at 277 h ([2]; patient ID 15, TIME 277, DOSE 50 every 12 from 133 (DUR 1, ADDL 11), WT 50, CCR 35.85, ALB 29.5, APACHE 39, single measurement) of the same compound?
The level at 277 h was 2420 ng/mL.

And the level at 169.25 h ([2]; patient ID 16, TIME 169.25, DOSE 50 every 12 from 0 (DUR 2, ADDL 14), WT 65, CCR 75.18, ALB 32, APACHE 31, single measurement)?
The level at 169.25 h was 6980 ng/mL.

And the level at 174 h ([2]; patient ID 16, TIME 174, DOSE 50 every 12 from 0 (DUR 2, ADDL 14), WT 65, CCR 75.18, ALB 32, APACHE 31, single measurement)?
Its level at 174 h is 2970 ng/mL.

What about the level at 179 h ([2]; patient ID 16, TIME 179, DOSE 50 every 12 from 0 (DUR 2, ADDL 14), WT 65, CCR 75.18, ALB 32, APACHE 31, single measurement) of the same compound?
Its level at 179 h is 2460 ng/mL.

What about the level at 120 h ([2]; patient ID 17, TIME 120, DOSE 50 every 12 from 0 (DUR 1, ADDL 10), WT 75, CCR 55.08, ALB 38.8, APACHE 22, single measurement) of the same compound?
The level at 120 h was 4530 ng/mL.

And the level at 121.48 h ([2]; patient ID 17, TIME 121.48, DOSE 50 every 12 from 0 (DUR 1, ADDL 10), WT 75, CCR 55.08, ALB 38.8, APACHE 22, single measurement)?
Its level at 121.48 h is 2350 ng/mL.

What about the level at 62.5 h ([2]; patient ID 18, TIME 62.5, DOSE 50 at 0, 12, 24, 36, 48, 60, DUR 2, WT 80, CCR 169.94, ALB 41.5, APACHE 29, single measurement) of the same compound?
The level at 62.5 h was 4860 ng/mL.

— publication PMC10090446, “Population pharmacokinetic analysis and dosing optimization of polymyxin B in critically ill patients” (Frontiers in Pharmacology, 2023)
